Assays:
MRC-5 cells = experiment: MTT cell growth inhibition assay, MRC-5; type: cell-based, human; settings: for IC50: MRC-5 normal cells; for IC90: MRC5, MRC-5 normal cells
Method: To assess cell viability, the MTT assay was used. HCT116, H460, CCD 841 CoN and MRC-5 cells (20,000/well and 50,000/well for cancer and normal cells, respectively) were seeded in 24-well plates, and the following UAs were added at concentrations up to 10 μM: C-2028, C-2041, C-2045 and C-2053. Stock solutions (10 mM) were prepared in sterile water, as well as dilutions, also in water. After 72 h, 3-(4, 5-dimethylthiazol-2-yl)-2,5-diphenyltetrazolium bromide (MTT; 800 μg/well) was added for 3 h, then the formazan crystals were dissolved in DMSO, and absorbance was read at 540 nm. Each point was conducted at least 4 times, and data are expressed relative to controls. The concentration of the drug required to inhibit cells growth by 50 (IC50), 80 (IC80) and 90% (IC90) compared to untreated control cells was determined from the curves plotting survival as a function of dose.

[1] = test system: MYC gene expression in H460 cells; experiment: RT-PCR MYC expression in H460; type: cell-based, human; settings: H460, IC90 doses; for relative mRNA level of MYC gene: with time of incubation up to 120 h
Method: HCT116, H460, CCD 841 CoN and MRC-5 cells after treatment with UAs were collected, washed twice with ice-cold PBS and resuspended in […] of PBS. mRNA was isolated using High Pure RNA Isolation Kit according to the manufacturer’s instructions (Roche, Basel, Switzerland). Briefly, cells were lysed in lysis-binding buffer and transferred to a filter tube. Contaminating DNA was removed by 15 min incubation of the filter tube with DNase I solution. The filter tube was washed once with buffer I and twice with buffer II, and after centrifugation, total RNA was eluted using the elution buffer. RNA concentration was determined by NanoDrop One (Thermo Scientific); 1 µg of RNA was reverse transcribed using Transcriptor First Strand cDNA Synthesis Kit according to the manufacturer’s instructions (Roche) in 20 µL of reaction containing 1 µg of RNA, […] anchored-oligo(dT)18Primer, 8 mM MgCl2, 20 U of Protector RNase Inhibitor, deoxynucleotide mix (1 mM each) and 22 U of Transcriptor Reverse Transcriptase. The reverse transcription reaction was carried out for 30 min at 55 °C and stopped by heating to 85 °C for 5 min and placing on ice. The cDNA solution was stored at −20 °C until use. Real-time polymerase chain reaction (PCR) was performed on 2 µL of cDNA using 0.2 µM forward and reverse primers on LightCycler® 480 using LightCycler® 480 SYBR Green I Master according to manufacturer’s instructions (Roche). Primers were designed using BLAST website. Their efficiency was checked, and they were ordered from Genomed (Warsaw, Poland). The sequences of primers were as follows: MYC set 1 forward primer, […]; MYC set 1 reverse primer, […]; MYC set 2 forward primer, […]; MYC set 2 reverse primer, […]; KRAS forward primer, […]; KRAS reverse primer, […]; reference gene, GAPDH forward primer ACCCACTCCTCCACCTTTG; and GAPDH reverse primer, CTCTTGTGCTCTTGCTGGG. Cycling conditions were as follows: 1 cycle for 7 min at 95 °C (preincubation), 45 cycles of amplification: 10 s at 95 °C (denaturation), 20 s at 62 °C (annealing), 30 s at 72 °C (extension), 1 cycle for obtaining melting curve and 1 cycle for 10 s at 40 °C (cooling). The results were standardized to the reference gene GADPH. The relative expression level of MYC and KRAS was quantified using comparative method […]. The results were obtained from three independent experiments, each of which was analyzed at least twice.

H460 cells [2] = experiment: Nuclear morphology (Hoechst 33342), H460; type: cell-based, human; settings: H460, IC90 doses, 72 and 120 h similar level (time not specified)
Method: Nuclear morphology was examined under a fluorescence microscope (OLYMPUS BX60, […]) after staining with Hoechst 33342. Briefly, after drug treatment, HCT116, H460, CCD 841 CoN and MRC-5 cells were spun onto microscopic slides, fixed with methanol:acetic acid (3:1) for 15 min and stained with Hoechst 33342 (1 mg/mL) for 15 min. Cells were regarded as apoptotic based on the presence of condensed, fragmented chromatin. Enlarged cells containing multiple nuclei were considered as typical of mitotic catastrophe.

H460 cells [3] = experiment: Annexin V/PI dual staining, H460; type: cell-based, human; settings: H460, IC90 doses; for necrotic cells (stained only with PI): during the incubation time
Method: Annexin V–FITC binding was performed with an Annexin-V Fluos Staining kit (BD Biosciences, San Jose, CA, USA) according to manufacturer’s protocol. Briefly, after drug treatment, HCT116 and H460 cells (1 × 10^6) were trypsinized, washed twice with ice-cold PBS, pelleted and resuspended in 100 µL of binding buffer containing Annexin-V–FITC and PI. Cells were incubated for 15 min at room temperature in the dark, then diluted with 400 µL of binding buffer and analyzed by flow cytometry with FACS Accuri C6 (BD, San Jose, CA, USA). Cells with low FITC and PI fluorescence were considered viable. Cells that presented high FITC fluorescence but low PI fluorescence were regarded as early apoptotic. Late apoptotic cells presented high FITC and PI fluorescence. Necrotic cells had low FITC fluorescence and high PI fluorescence.

[4] = test system: cleaved PARP in H460 cells; experiment: PARP cleavage flow cytometry, H460; type: cell-based, human; settings: H460, IC90 doses
Method: PARP cleavage was determined using Alexa Fluor 647-conjugated anti-cleaved PARP antibody (BD Biosciences, San Diego, CA, USA) according to the manufacturer’s instructions. Briefly, HCT116 and H460 cells (1 × 10^6) were trypsinized, pelleted, washed twice with ice-cold PBS and fixed in Fixation Buffer for 20 min on ice. After fixation, cells were rinsed twice with Perm Wash Buffer, stained with Alexa Fluor 647-conjugated anti-cleaved PARP antibody for 30 min, rinsed with Perm Wash Buffer and analyzed by flow cytometry with FACS Accuri C6 (BD, San Jose, CA, USA).

H460 cells [5] = experiment: Colony-forming assay, H460; type: cell-based, human; settings: for number of colonies: H460, 120 h treatment at IC90 doses, about 250 cells cultured two weeks in fresh medium; for return to proliferation (colony formation): H460, IC90 doses, already after 24 h of incubation
Method: The ability of cells to return to proliferation after UAs treatment was measured by a colony-forming assay. After drug treatment, 250 HCT116 and H460 cells were harvested and seeded in a new 6-well plate containing fresh medium without the drug and incubated for two weeks. Untreated cells were used as controls. After two weeks, colonies were fixed with 80% ethanol, stained with crystal violet, counted, and photos were taken.

[6] = test system: MYC gene expression in HCT116 cells; experiment: RT-PCR MYC expression in HCT116; type: cell-based, human; settings: HCT116, IC90 doses, 120 h, 2^-ΔΔCt
Method: HCT116, H460, CCD 841 CoN and MRC-5 cells after treatment with UAs were collected, washed twice with ice-cold PBS and resuspended in […] of PBS. mRNA was isolated using High Pure RNA Isolation Kit according to the manufacturer’s instructions (Roche, Basel, Switzerland). Briefly, cells were lysed in lysis-binding buffer and transferred to a filter tube. Contaminating DNA was removed by 15 min incubation of the filter tube with DNase I solution. The filter tube was washed once with buffer I and twice with buffer II, and after centrifugation, total RNA was eluted using the elution buffer. RNA concentration was determined by NanoDrop One (Thermo Scientific); 1 µg of RNA was reverse transcribed using Transcriptor First Strand cDNA Synthesis Kit according to the manufacturer’s instructions (Roche) in 20 µL of reaction containing 1 µg of RNA, […] anchored-oligo(dT)18Primer, 8 mM MgCl2, 20 U of Protector RNase Inhibitor, deoxynucleotide mix (1 mM each) and 22 U of Transcriptor Reverse Transcriptase. The reverse transcription reaction was carried out for 30 min at 55 °C and stopped by heating to 85 °C for 5 min and placing on ice. The cDNA solution was stored at −20 °C until use. […] The relative expression level of MYC and KRAS was quantified using comparative method […]. The results were obtained from three independent experiments, each of which was analyzed at least twice.

H460 spheroids = test system: H460 spheroids; set-up: method as in PMID 34684841; settings: H460 3D spheroids; cited from earlier work

SMILES | IC50 (MRC-5 cells; Homo sapiens, MRC5, 72 h) [nM] | IC90 (MRC-5 cells; Homo sapiens, 72 h) [nM] | relative mRNA level of MYC gene [1] | apoptotic cells (nuclear morphology) (H460 cells [2]) [%] | annexin V positive cells (early and late apoptotic) (H460 cells [3]; 120 h) [%] | necrotic cells (stained only with PI) (H460 cells [3]) [%] | cells with cleaved PARP ([4]; 120 h) | number of colonies (H460 cells [5]) | MYC expression, fold increase [6] [fold] | inhibition of spheroids growth (H460 spheroids) | IC50 (MRC-5 cells; 72 h) [nM] | drop of MYC mRNA level [1] [%] | necrotic cells (A−PI+) (H460 cells [3]; 120 h) [%] | cells with cleaved PARP ([4]; 72 h) [%] | return to proliferation (colony formation) (H460 cells [5])
CN(CCCNc1c2ccccc2nc2cccc([N+](=O)[O-])c12)CCCNc1ccc2ncn3c4ccccc4c(=O)c1c23 [Compound C-2028] | ~20 | 2690 ± 640 | stayed at the similar level | 24.8 | 48.7 | ≤ 10 | about 20% | eight |  |  |  |  |  |  | 
O=c1c2ccccc2n2cnc3ccc(NCCCN4CCN(CCCNc5c6ccccc6nc6cccc([N+](=O)[O-])c56)CC4)c1c32 [Compound C-2041] | 23 ± 4 | 6160 ± 2060 | 1.65 |  | 35.9 | ≤ 10 | about 20% | 77 colonies | 3.3 | to the least extent |  |  |  |  | 
Cc1ccc([N+](=O)[O-])c2c(NCCCN(C)CCCNc3ccc4ncn5c6ccc(O)cc6c(=O)c3c45)c3ccccc3nc12 [Compound C-2045] | ~300 | 6130 ± 2350 | around 0.55 | 41.8 | 49.4 |  | 28.2% |  | 5.3 |  | 218 ± 37 | 50 | ~12 | 53.9 | completely blocked their return to proliferation
Cc1ccc([N+](=O)[O-])c2c(NCCCN(C)CCCNc3ccc4ncn5c6ccccc6c(=O)c3c45)c3ccccc3nc12 [Compound C-2053] | 120 ± 26 | 3800 ± 1340 | around 0.55 | 41.6 | 53.1 | ≤ 10 | 43.3% |  |  | to the greatest extent |  | 50 |  | 47.8 | completely blocked their return to proliferation

Reference: article PMC8955938, “c-Myc Protein Level Affected by Unsymmetrical Bisacridines Influences Apoptosis and Senescence Induced in HCT116 Colorectal and H460 Lung Cancer Cells” (International Journal of Molecular Sciences, 2022)
